The source of these data is article PMC4010550, “Imidazol-1-ylethylindazole Voltage-Gated Sodium Channel Ligands Are Neuroprotective during Optic Neuritis in a Mouse Model of Multiple Sclerosis” (Journal of Medicinal Chemistry, 2014).

Read-outs that look alike come from different tables or passages of the source. Marks after values point to notes of the source that are not given here.

Test [1] has as its system rat hippocampal slices. Briefly: in vitro neuroprotection assay, hippocampal slices under oxygen-glucose deprivation, ATP levels. The test is classed as cell-based. Particulars: for Emax at 50 µM: Rattus norvegicus.
The target of test [2] is hNav1.1 (Homo sapiens, UniProt P35498). Kind of test: automated patch-clamp Nav isoform screening. The test is classed as cell-based. The following applies: Nav1.1. Background: Patch clamp records ionic current or voltage across a cell membrane.
In test [3] the target is hNav1.2 (Homo sapiens, UniProt Q99250). Kind of test: automated patch-clamp Nav isoform screening. Format: cell-based. The following applies: Nav1.2.
hNav1.2, sequence (Q99250 whole entry, canonical isoform): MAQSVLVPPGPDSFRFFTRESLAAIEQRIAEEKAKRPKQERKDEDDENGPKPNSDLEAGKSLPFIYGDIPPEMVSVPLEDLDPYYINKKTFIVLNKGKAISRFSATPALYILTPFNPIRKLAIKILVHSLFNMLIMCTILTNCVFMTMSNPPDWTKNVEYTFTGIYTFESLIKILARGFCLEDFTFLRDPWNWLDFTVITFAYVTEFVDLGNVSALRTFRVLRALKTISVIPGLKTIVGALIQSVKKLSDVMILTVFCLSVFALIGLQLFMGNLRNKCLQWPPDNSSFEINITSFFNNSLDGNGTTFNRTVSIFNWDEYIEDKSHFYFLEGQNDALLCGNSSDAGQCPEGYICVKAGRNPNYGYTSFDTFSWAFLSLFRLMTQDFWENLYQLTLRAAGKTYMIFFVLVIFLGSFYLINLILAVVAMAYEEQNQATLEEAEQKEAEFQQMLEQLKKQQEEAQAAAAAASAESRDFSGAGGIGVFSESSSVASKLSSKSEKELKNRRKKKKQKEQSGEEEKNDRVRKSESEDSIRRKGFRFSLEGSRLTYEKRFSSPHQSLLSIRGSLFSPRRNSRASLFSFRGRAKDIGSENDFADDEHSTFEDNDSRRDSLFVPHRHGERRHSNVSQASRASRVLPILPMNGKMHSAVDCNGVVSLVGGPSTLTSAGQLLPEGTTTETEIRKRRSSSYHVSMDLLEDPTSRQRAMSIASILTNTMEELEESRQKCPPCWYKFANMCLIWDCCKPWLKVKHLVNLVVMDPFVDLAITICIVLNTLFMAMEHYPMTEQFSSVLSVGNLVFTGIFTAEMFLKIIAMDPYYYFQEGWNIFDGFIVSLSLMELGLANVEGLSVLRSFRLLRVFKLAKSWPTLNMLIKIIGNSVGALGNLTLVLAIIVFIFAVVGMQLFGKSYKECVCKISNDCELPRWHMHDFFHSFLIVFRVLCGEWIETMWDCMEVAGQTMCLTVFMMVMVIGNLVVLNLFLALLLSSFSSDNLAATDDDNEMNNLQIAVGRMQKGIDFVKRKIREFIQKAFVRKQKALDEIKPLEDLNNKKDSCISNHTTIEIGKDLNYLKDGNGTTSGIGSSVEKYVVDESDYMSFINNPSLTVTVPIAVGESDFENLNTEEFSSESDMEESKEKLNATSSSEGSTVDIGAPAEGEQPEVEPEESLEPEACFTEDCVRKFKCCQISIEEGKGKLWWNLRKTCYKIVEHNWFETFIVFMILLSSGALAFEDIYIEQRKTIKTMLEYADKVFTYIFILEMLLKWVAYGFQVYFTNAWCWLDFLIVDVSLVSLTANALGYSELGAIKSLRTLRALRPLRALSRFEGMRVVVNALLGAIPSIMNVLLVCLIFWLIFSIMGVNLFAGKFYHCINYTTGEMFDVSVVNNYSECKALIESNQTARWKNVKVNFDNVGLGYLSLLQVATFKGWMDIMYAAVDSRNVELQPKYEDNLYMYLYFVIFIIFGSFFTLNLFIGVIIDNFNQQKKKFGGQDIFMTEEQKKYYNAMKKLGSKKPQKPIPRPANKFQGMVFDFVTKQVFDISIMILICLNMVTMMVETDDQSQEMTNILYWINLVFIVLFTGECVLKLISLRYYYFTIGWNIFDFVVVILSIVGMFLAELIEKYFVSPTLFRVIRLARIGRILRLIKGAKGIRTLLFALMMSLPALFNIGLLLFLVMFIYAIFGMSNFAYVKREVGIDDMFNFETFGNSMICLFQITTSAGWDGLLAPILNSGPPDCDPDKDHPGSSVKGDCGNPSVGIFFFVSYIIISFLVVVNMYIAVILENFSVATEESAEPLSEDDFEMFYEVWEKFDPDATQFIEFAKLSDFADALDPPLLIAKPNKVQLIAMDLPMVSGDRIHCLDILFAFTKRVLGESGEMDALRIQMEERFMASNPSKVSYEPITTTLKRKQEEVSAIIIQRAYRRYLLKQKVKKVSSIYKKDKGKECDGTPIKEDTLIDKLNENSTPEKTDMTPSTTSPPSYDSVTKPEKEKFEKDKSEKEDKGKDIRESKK
Test [4] has as its target hNav1.3 (Homo sapiens, UniProt Q9NY46). Briefly: automated patch-clamp Nav isoform screening. The test is classed as cell-based. The following applies: Nav1.3.
The target in test [5] is hNav1.4 (Homo sapiens, UniProt P35499). Briefly: automated patch-clamp Nav isoform screening. Format: cell-based. The following applies: Nav1.4.
Test [6] addresses hNav1.5 (Homo sapiens, UniProt Q14524). Kind of test: automated patch-clamp Nav isoform screening. The test is classed as cell-based. The following applies: Nav1.5.
Test [7] has as its target hNav1.6 (Homo sapiens, UniProt Q9UQD0). Briefly: automated patch-clamp Nav isoform screening. The following applies: Nav1.6. The test is classed as cell-based.
The target in test [8] is hNav1.7 (Homo sapiens, UniProt Q15858). Kind of test: automated patch-clamp Nav isoform screening. Format: cell-based. The following applies: Nav1.7.
In test [9] the target is hNav1.8/β3 (Homo sapiens, UniProt Q9Y5Y9). Kind of test: automated patch-clamp Nav isoform screening. Format: cell-based. Particulars: Nav1.8.
hNav1.8/β3, sequence (Q9Y5Y9 whole entry, canonical isoform): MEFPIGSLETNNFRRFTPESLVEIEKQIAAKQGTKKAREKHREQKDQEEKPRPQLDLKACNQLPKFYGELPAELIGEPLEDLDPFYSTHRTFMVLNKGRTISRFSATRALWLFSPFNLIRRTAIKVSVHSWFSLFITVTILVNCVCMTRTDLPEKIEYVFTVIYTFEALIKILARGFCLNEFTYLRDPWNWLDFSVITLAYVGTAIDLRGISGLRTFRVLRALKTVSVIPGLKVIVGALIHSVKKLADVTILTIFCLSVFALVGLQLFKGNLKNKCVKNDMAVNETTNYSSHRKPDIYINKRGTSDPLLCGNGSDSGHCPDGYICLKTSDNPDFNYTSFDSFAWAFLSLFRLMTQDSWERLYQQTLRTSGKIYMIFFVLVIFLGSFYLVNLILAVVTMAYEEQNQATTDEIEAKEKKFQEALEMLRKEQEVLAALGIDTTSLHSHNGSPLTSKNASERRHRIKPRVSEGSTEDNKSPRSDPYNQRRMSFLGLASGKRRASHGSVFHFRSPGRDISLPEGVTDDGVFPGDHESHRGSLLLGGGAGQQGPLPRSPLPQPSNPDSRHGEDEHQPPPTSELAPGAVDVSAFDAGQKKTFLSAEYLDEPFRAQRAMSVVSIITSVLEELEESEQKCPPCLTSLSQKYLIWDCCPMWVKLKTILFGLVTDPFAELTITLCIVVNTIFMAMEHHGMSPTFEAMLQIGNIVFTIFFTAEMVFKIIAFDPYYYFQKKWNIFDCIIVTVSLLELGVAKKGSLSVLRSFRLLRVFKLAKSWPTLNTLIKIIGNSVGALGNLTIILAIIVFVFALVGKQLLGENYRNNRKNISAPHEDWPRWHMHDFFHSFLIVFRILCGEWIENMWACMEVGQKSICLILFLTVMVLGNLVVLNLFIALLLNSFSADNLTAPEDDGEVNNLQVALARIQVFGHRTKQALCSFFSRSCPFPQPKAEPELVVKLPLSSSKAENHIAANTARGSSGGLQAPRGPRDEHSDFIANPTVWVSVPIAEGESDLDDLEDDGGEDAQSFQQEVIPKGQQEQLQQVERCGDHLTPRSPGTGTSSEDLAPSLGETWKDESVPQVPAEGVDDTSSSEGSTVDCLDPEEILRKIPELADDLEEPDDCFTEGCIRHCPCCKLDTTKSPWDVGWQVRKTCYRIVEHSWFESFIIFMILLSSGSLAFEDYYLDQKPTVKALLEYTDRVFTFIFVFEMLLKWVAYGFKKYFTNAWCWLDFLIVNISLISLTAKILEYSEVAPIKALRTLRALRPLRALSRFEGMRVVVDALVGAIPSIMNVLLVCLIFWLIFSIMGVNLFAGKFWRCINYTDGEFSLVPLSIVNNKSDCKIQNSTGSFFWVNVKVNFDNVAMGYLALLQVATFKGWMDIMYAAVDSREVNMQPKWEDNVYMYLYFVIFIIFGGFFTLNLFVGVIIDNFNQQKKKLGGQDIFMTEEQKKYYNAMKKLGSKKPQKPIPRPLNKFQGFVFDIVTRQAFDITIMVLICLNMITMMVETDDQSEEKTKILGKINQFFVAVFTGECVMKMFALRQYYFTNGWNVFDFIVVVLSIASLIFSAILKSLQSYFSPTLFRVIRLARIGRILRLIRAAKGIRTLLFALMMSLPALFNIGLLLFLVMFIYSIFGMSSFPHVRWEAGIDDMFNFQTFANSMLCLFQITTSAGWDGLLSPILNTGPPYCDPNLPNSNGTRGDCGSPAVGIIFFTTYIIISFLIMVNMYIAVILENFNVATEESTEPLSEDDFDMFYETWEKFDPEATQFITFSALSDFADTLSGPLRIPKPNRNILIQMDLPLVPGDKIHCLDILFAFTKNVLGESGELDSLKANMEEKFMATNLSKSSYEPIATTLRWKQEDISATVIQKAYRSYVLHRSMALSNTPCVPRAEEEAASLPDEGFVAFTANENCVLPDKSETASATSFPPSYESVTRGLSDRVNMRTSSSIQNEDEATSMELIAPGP
hNav1.8/β3, sequence (Q9NY72 25-215 partner limits assumed): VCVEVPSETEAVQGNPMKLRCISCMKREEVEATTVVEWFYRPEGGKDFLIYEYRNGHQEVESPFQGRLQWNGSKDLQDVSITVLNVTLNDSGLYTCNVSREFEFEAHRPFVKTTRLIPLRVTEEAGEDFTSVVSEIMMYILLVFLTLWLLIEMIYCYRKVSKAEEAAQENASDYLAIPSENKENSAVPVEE
Test [10] deals with T-cell proliferation to oxazolone in lymphnodes. Briefly: contact hypersensitivity model / in vivo local lymph node assay (T-cell immunosuppressive activity). Particulars: mouse, 5–50 mg/kg i.p. day −1 to day 2, oxazolone sensitization day 0, read day 3.
The test system of test [11] is sodium channels. On the set-up: method as in PMID 19341281. Particulars: reported previously / values reported in literature; read-out: [3H]sipatrigine binding, IC50; cited from earlier work.
Test [12] deals with rat hippocampal slices. On the set-up: method as in PMID 19341281. The following applies: reported previously; cited from earlier work.
[13] abbreviates: normalized to the effect of TTX.

One may read the Emax as the maximal effect, on the per cent scale that the assay sets. Turning to `O=C(NCc1noc(-c2nn(CCn3ccnc3)c3ccccc23)n1)c1ccccc1` [compound 6, N-[[5-[1-(2-Imidazol-1-ylethyl)indazol-3-yl]-1,2,4-oxadiazol-3-yl]methyl]benzamide], the Emax at 50 µM in test [1] (setting [13]) amounted to 46%. Further, the “inactivated-state block (c) n (slope of the fit)” value in [2] was found to be 1.71 ± 0.73; in [3], 1.48 ± 0.38; in test [4], 0.78 ± 0.15; in test [5] it was 1.43 ± 0.27; in [6], 0.99 ± 0.22; in test [7], 2.45 ± 2.59. In addition, the “inactivated-state block (c) n (slope of the fit)” value in test [8] is 2.24 ± 0.17; in test [9], 1.42 ± 0.1. In addition, the “10 Hz block (b) n (slope of the fit)” value in test [3] was 1.82 ± 0.73; in [5] it was 1.21 ± 0.36; in test [6], 1.16 ± 0.54. Also, the “tonic block (a) n (slope of the fit)” value in test [3] turned out to be 1.12 ± 0.51; in test [8], 2.09 ± 1.73. Besides, the “T-cell immunosuppressive activity (inhibitory effect of sensitization; lymph node cell numbers, per cell proliferative response)” value in [10] was “no evidence suggestive of any inhibitory effect of sensitization”.

A word on the IC50: it is the midpoint of a concentration-inhibition curve. For `CC(C)(C)OC(=O)NCc1noc(-c2nn(Cc3ccccc3)c3ccccc23)n1` [compound 14], in test [11], the IC50 was 8.3 µM. For the same molecule, the “neuroprotection at 50 μM” value in test [12] is reported as 19 ^e %.

With `CC(C)(C)OC(=O)NCc1noc(-c2c3ccccc3nn2Cc2ccccc2)n1` [compound 15], in test [11], the IC50 is 5.5 µM. For the same molecule, the “neuroprotection at 50 μM” value in test [12] is reported as 25 ^e %.

As to `NCc1noc(-c2nn(Cc3ccccc3)c3ccccc23)n1` [compound 24], in test [11], the IC50 was 3.3 ± 0.6 µM.

Turning to `NCc1noc(-c2c3ccccc3nn2Cc2ccccc2)n1` [compound 25], the half-inhibitory concentration (IC50) in [11] is 7 ± 2.8 µM.

Turning to `O=C(NCc1noc(-c2c3ccccc3nn2CCn2ccnc2)n1)c1ccccc1` [compound 34], the maximal effect (Emax) at 50 µM in test [1] (setting [13]) came out at 41 ± 9.4%.

`COc1cccc(C(=O)NCc2noc(-c3nn(CCn4ccnc4)c4ccccc34)n2)c1OC` [compound 41] returned a maximal response (Emax) at 50 µM in [1] (setting [13]) of 71%.

Turning to `O=C(NCc1noc(-c2c3ccccc3nn2CCn2ccnc2)n1)c1cccc(OC(F)(F)F)c1` [compound 51], the “10 Hz block (b) n (slope of the fit)” value in test [2] came out at 1.32 ± 0.16; in test [3], 0.63 ± 0.14; in test [4] it was 0.35 ± 0.19; in test [5] it was 1.34 ± 0.13; in test [6] it was 0.37 ± 0.13; in test [7], 0.42 ± 0.19. Further, the “10 Hz block (b) n (slope of the fit)” value in test [8] was 2.63 ± 0.33; in test [9] it was 2.62 ± 1.05. Further, the “inactivated-state block (c) n (slope of the fit)” value in test [2] came to 2.09 ± 0.32; in test [3], 0.6 ± 0.12; in [4] it was 0.96 ± 0.19; in test [5] it was 1.75 ± 0.12; in test [6] it was 0.49 ± 0.15; in [7], 1.17 ± 0.18. The results for the “inactivated-state block (c) n (slope of the fit)” value in test [8] and in test [9] were 2.5 ± 0.1 and 2.75 ± 0.66, respectively. The “tonic block (a) n (slope of the fit)” value in test [2] is 1.09 ± 0.24; in test [3], 0.48 ± 0.14; in test [5], 1.23 ± 0.18; in [6], 0.76 ± 0.23; in [8], 2.59 ± 0.41; in [9], 2.14 ± 0.51.

For `Nc1nnc(-c2cccc(Cl)c2Cl)c(N)n1` [lamotrigine, reference compound], in test [1] (tested at 30 μM, normalized to the effect of TTX), the neuroprotection is 33 ^b %. The half-maximal inhibitory concentration (IC50) in [11] was 1.8 ± 0.2 µM.

`CN1CCN(c2ncc(-c3cc(Cl)cc(Cl)c3Cl)c(N)n2)CC1` [sipatrigine, reference compound]: the neuroprotection in [1] (tested at 3 μM) is 93 ^d %. Moreover, the concentration for half-maximal inhibition (IC50) in [11] was 0.04 ± 0.001 µM.

With `NC1=N[C@H](O)[C@H]2[C@H]3O[C@]4(O)O[C@@H]([C@@H](O)[C@@]2(N1)[C@@H]4O)[C@]3(O)CO` [tetrodotoxin, reference compound], the neuroprotection in [1] is 100 ^c %.
